Data from ChEMBL document CHEMBL2321863, “Novel Inverse Binding Mode of Indirubin Derivatives Yields Improved Selectivity for DYRK Kinases” (ACS Med Chem Lett, 2013).

Molecular target: Glycogen synthase kinase 3 beta (Sus scrofa, UniProt B2LUN4)
Assay: Inhibition of porcine brain GSK3beta using YRRAAVPPSPSLSRHSSPHQSpEDEEE as substrate

Chain of Glycogen synthase kinase 3 beta (B2LUN4 whole entry): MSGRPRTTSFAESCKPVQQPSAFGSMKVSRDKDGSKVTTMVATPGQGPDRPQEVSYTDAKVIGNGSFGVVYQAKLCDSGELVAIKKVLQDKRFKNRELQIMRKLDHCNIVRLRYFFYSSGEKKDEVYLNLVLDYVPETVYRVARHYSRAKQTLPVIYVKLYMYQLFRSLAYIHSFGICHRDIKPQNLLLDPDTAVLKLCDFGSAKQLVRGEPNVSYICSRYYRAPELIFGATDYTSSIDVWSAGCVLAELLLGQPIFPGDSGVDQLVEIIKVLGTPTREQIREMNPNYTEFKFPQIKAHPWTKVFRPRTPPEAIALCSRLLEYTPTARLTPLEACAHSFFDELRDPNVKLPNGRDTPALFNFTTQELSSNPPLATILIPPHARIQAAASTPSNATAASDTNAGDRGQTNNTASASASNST

## Cn1c(O)c(-c2[nH]c3ccccc3c2N=O)c2cccc(Br)c21
  IC50: > 10 µM
